The test system of assay [1] is Staphylococcus aureus. Nature of the assay: Antimicrobial activity against Staphylococcus aureus Tour by tube dilution method. It counts as functional.
The subject of assay [2] is Streptococcus pyogenes. In words: Antimicrobial activity against Streptococcus haemolyticus C 203 by tube dilution method. It counts as functional.
Assay [3] concerns Streptococcus pneumoniae. Nature of the assay: Antimicrobial activity against Diplococcus pneumoniae UC41 by tube dilution method. It counts as functional.
In assay [4] the test system is Clostridium perfringens. Nature of the assay: Antimicrobial activity against Clostridium perfringens ISS 30543 by tube dilution method. It counts as functional.
Assay [5] concerns Proteus vulgaris. Nature of the assay: Antimicrobial activity against Proteus vulgaris X19 H ATCC 881 by tube dilution method. It counts as functional.
For assay [6], the system named is Escherichia coli. Nature of the assay: Antimicrobial activity against Escherichia coli SKF 12140 by tube dilution method. Type of assay: functional.
Assay [7] deals with Shigella sonnei. In words: Antimicrobial activity against Shigella sonnei ATCC 9290 by tube dilution method. Type of assay: functional.
The subject of assay [8] is Salmonella typhimurium. In words: Antimicrobial activity against Salmonella typhimurium Kh by tube dilution method. Type of assay: functional, Salmonella enterica subsp. enterica serovar Typhimurium. The note with it: Salmonella enterica.
In assay [9] the test system is Klebsiella pneumoniae. In words: Antimicrobial activity against Klebsiella pneumoniae I.S.M. by tube dilution method. It counts as functional.
Assay [10] concerns Pseudomonas aeruginosa. Nature of the assay: Antimicrobial activity against Pseudomonas aeruginosa ATCC 10145 by tube dilution method. Type of assay: functional.
In assay [11] the test system is Candida albicans. Nature of the assay: Antimicrobial activity against Candida albicans SKF 2270 by tube dilution method. Type of assay: functional.
The test system of assay [12] is Trichophyton mentagrophytes. In words: Antimicrobial activity against Trichophyton mentagrophytes SKF 17410 by tube dilution method. It counts as functional.
Assay [13] deals with Mycobacterium tuberculosis. In words: Antimicrobial activity against Mycobacterium tuberculosis ATCC 9360 by tube dilution method. It counts as functional.
Assay [14] concerns Mycoplasmoides gallisepticum. In words: Antimicrobial activity against Mycoplasma gallisepticum H21 C.Z.B. by tube dilution method. Type of assay: functional.
Assay [15] has as its system Trichomonas vaginalis. In words: Trichomonastatic activity against Trichomonas vaginalis by tube dilution method. Type of assay: functional.
Assay [16] concerns Trichomonas vaginalis. In words: Trichomonacidal activity against Trichomonas vaginalis by tube dilution method. It counts as functional.

The MIC is the lowest concentration that inhibits growth of the organism. A lower MIC goes with greater potency.

In brackets after ≈: the same amount, converted by molar mass.

For the compound `Cn1c(/C=[N+](/C)[O-])cnc1[N+](=O)[O-]`, the MIC in [1] was found to be 50 µg/mL (≈ 272 µM); in assay [2] it was 50 µg/mL (≈ 272 µM); in assay [3], 50 µg/mL (≈ 272 µM); in [4], 10 µg/mL (≈ 54.3 µM); in assay [5], 20 µg/mL (≈ 109 µM); in [6], 10 µg/mL (≈ 54.3 µM). Besides, the MIC in assay [7] is 20 µg/mL (≈ 109 µM); in assay [8], 20 µg/mL (≈ 109 µM); in assay [9], 50 µg/mL (≈ 272 µM); in assay [10], 100 µg/mL (≈ 543 µM); in assay [11] it was over 100 µg/mL; in assay [12] it was over 100 µg/mL. Moreover, the MIC in [13] is 50 µg/mL (≈ 272 µM); in [14], 20 µg/mL (≈ 109 µM); in assay [15] it was 100 µg/mL (≈ 543 µM); in assay [16] it was over 100 µg/mL.

`O=C1CN(/N=C/c2ccc([N+](=O)[O-])o2)C(=O)N1` [NITROFURANTOIN]: the MIC in assay [1] came to 10 µg/mL (≈ 42 µM); in [3] it was 1 µg/mL (≈ 4.2 µM); in [5], 100 µg/mL (≈ 420 µM); in assay [6], 5 µg/mL (≈ 21 µM); in [7] it was 10 µg/mL (≈ 42 µM); in assay [8], 20 µg/mL (≈ 84 µM). Further, the minimal inhibitory concentration (MIC) in assay [9] is 50 µg/mL (≈ 210 µM); in assay [10], over 100 µg/mL; in assay [13] it was 50 µg/mL (≈ 210 µM).

`CC(/C=C/c1cnc([N+](=O)[O-])n1C)=N\N(C)C`: the minimum inhibitory concentration (MIC) in assay [1] was 100 µg/mL (≈ 421 µM); in [2], over 100 µg/mL; in assay [3], over 100 µg/mL; in [4], 10 µg/mL (≈ 42.1 µM); in assay [5] it was over 100 µg/mL; in assay [6], 50 µg/mL (≈ 211 µM). The MIC in [7], in [8], in assay [9], in assay [10], in assay [11] and in [12] was over 100 µg/mL in each case. Moreover, the minimal inhibitory concentration (MIC) in assay [13] was 20 µg/mL (≈ 84.3 µM); in assay [14] it was over 100 µg/mL; in [15], 20 µg/mL (≈ 84.3 µM); in assay [16], 50 µg/mL (≈ 211 µM).

In the case of `CCCCC(C(O)c1cnc([N+](=O)[O-])n1C)[N+](=O)[O-]` (stereo unspecified), the minimal inhibitory concentration (MIC) in assay [1] is 50 µg/mL (≈ 184 µM); in [2] it was over 100 µg/mL; in [3] it was 100 µg/mL (≈ 367 µM); in assay [4], 20 µg/mL (≈ 73.5 µM); in [5], 100 µg/mL (≈ 367 µM); in [6], 50 µg/mL (≈ 184 µM). In addition, the minimal inhibitory concentration (MIC) worked out at 50 µg/mL (≈ 184 µM) in assay [7]; 50 µg/mL (≈ 184 µM) in assay [8]; 100 µg/mL (≈ 367 µM) in assay [9]; 20 µg/mL (≈ 73.5 µM) in [10]; 50 µg/mL (≈ 184 µM) in assay [11]; 50 µg/mL (≈ 184 µM) in [12]. The MIC in assay [13] is 50 µg/mL (≈ 184 µM); in assay [14] it was 50 µg/mL (≈ 184 µM); in assay [15], over 100 µg/mL.

On to `COC(=O)c1cnc([N+](=O)[O-])n1C`, for which the MIC in assay [1] is 50 µg/mL (≈ 270 µM); in assay [2], over 100 µg/mL; in assay [3], 50 µg/mL (≈ 270 µM); in assay [4], 5 µg/mL (≈ 27 µM); in [5] it was over 100 µg/mL; in assay [6] it was 20 µg/mL (≈ 108 µM). Moreover, the minimum inhibitory concentration (MIC) was 100 µg/mL (≈ 540 µM) in [7]; 100 µg/mL (≈ 540 µM) in assay [8]; over 100 µg/mL in assay [9]; over 100 µg/mL in assay [10]; over 100 µg/mL in assay [11]; over 100 µg/mL in assay [12]. Besides, the figures for the MIC in assay [13], in [14] and in [15] were over 100 µg/mL, over 100 µg/mL and over 50 µg/mL, respectively.

For the compound `Cn1c(C=O)cnc1[N+](=O)[O-]`, the MIC was determined as 50 µg/mL (≈ 322 µM) in assay [1]; 50 µg/mL (≈ 322 µM) in assay [2]; 20 µg/mL (≈ 129 µM) in assay [3]; 10 µg/mL (≈ 64.5 µM) in [4]; 50 µg/mL (≈ 322 µM) in assay [5]; 10 µg/mL (≈ 64.5 µM) in assay [6]. Also, the MIC in [7] came to 20 µg/mL (≈ 129 µM); in assay [8] it was 2 µg/mL (≈ 12.9 µM); in [9], 10 µg/mL (≈ 64.5 µM); in [10] it was 10 µg/mL (≈ 64.5 µM); in assay [11] it was 50 µg/mL (≈ 322 µM); in assay [12] it was 10 µg/mL (≈ 64.5 µM). Besides, the MIC in [13] is 10 µg/mL (≈ 64.5 µM); in assay [15], 100 µg/mL (≈ 645 µM); in assay [16], over 100 µg/mL.

The values are drawn from ChEMBL document CHEMBL3244225, “Synthesis and biological activity of some vinyl-substituted 2-nitroimidazoles” (J Med Chem, 1977).
